Reference: patent publication US20120263754A1, “Methods for Enhancing Immunogen Specific Immune Responses by Vectored Vaccines” (priority 2011, published 2012)

Tested on: CD8 T cell response to the epitope AH1A5
Assay: Adjuvant mixed with DC-NILV encoding AH1A5 and administered together subcutaneously; ICS/FACS
Assay type: in vivo, BALB/c mice
Conditions: adjuvant mixed with DC-NILV AH1A5 1 μg p24, s.c.; 4 or 20 μg GLA, 4 μg LPS; spleen cells day 10
Description: FIG. 2 illustrates the effect of two adjuvants, GLA and lipopolysaccharide (LPS), on the immune response to the CD8 T cell epitope AH1A5. The lentiviral vector encoding AH1A5 (SinVarl FUW AH1A5 (1 μg p24)) was mixed with PBS (control group), 4 μg GLA, 20 μg GLA, or 4 μg LPS and then administered subcutaneously (s.c.) to groups of BALB/C mice. After 10 days, spleen cells were isolated from animals in each group, and the CD8 T cell response was evaluated by determining the level of TNF-α and IFN-γ by intracellular cytokine staining (ICS) followed by fluorescence activated cell sorting (FACS). The values shown are the mean percentage ±SEM of CD8 T cells that are positive for IFN-γ. Data are also shown from spleen cells obtained from mice that were not injected with the lentiviral vector (no LV).
The effect of two adjuvants, GLA and lipopolysaccharide (LPS), on the immune response to the CD8 T cell epitope AH1A5 was determined. DC-NILV encoding AH1A5 (1 μg p24) was mixed with PBS (control group), 4 μg GLA, 20 μg GLA, or 4 μg lipopolysaccaride (LPS) and then administered subcutaneously (s.c.) to groups of BALB/c mice. After 10 days, spleen cells were isolated from animals in each group, and the CD8 T cell response was evaluated by determining the level of TNF-α and IFN-γ by intracellular cytokine staining (ICS) followed by fluorescence activated cell sorting (FACS). […]

lipopolysaccharide [LPS]
effect of coadministered adjuvant on vaccine-induced immune responses (CD8 T cells, TNF-α and IFN-γ): inhibitory effect
